For test [1], the target named is T1, LCRK3 (cdc2-related protein kinase 3) (Leishmania mexicana, UniProt O15851).
T1 construct: gene crk3; recombinant, purified from transgenic L. mexicana promastigotes (homologous expression, gift of K. Grant)
T1 sequence (O15851 1-311): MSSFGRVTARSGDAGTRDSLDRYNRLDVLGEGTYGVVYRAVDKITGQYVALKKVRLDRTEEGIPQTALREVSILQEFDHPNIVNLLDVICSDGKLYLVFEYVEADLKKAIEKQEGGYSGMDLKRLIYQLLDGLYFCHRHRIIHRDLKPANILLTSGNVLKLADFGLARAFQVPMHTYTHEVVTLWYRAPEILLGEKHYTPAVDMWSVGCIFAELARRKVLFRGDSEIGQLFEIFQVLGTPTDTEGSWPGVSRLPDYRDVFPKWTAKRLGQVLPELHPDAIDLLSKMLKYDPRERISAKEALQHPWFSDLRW
The test is described as follows: luminescent kinase assay (Promega). The class given is biochemical. The conditions noted are these: read-out: L CRK3.

The target of test [2] is T2, LGSK-3 (leishmanial Glycogen Synthase Kinase-3 short) (Leishmania donovani, UniProt A6N857).
T2 construct: recombinant, purified from L. donovani over-expressing transfectants (homologous expression); A6N857 is printed for the L. donovani homology model and alignment
T2 sequence (A6N857 1-355): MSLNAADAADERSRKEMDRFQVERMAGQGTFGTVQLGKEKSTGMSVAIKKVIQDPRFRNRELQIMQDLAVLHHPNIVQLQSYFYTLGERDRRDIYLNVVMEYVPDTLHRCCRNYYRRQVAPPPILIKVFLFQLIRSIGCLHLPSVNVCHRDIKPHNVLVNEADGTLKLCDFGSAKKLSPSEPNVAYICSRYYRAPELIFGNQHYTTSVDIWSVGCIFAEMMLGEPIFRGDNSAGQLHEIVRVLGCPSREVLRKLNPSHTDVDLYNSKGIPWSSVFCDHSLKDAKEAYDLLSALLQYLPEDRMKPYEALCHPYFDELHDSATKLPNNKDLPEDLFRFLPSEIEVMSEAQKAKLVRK
The test is described as follows: luminescent kinase assay (Promega). The class given is biochemical. As to conditions: read-out: L GSK-3.

`Cc1cc2c(cc1Br)NC(=O)C2=C1Nc2ccccc2C1=NO` [5-Me-6-BIO, 5-methyl-6-bromoindirubin-3′-oxime]: the IC50 in test [1] is 650 ± 90 nM; in test [2] it was 90 ± 20 nM.

Source of the values: publication PMC4039064, “An inhibitor-driven study for enhancing the selectivity of indirubin derivatives towards leishmanial Glycogen Synthase Kinase-3 over leishmanial cdc2-related protein kinase 3” (Parasites & Vectors, 2014).
